What was measured:
Crassostrea virginica = experiment: Inhibitory activity against KDN-sialidase from Crassostrea virginica at a concentration of 1 mM
[1] = Inhibitory activity against influenza virus A(N9) sialidase
influenza virus a = experiment: Inhibitory activity against influenza virus A(N9) sialidase at a concentration of 0.1 mM
[2] = tested on: Salmonella enterica subsp. enterica serovar Typhimurium; experiment: Inhibitory activity sialidase from Salmonella Typhimurium at a concentration of 0.1 mM
Clostridium perfringens = experiment: Inhibitory activity against sialidase from Clostridium perfringens at a concentration of 0.1 mM
Vibrio cholerae = experiment: Inhibitory activity against Vibrio cholerae sialidase at a concentration of 0.1 mM
[3] = Inhibitory activity against Vibrio cholerae sialidase

Compound	inhibition (Crassostrea virginica) [%]	Ki [1] [nM]	inhibition (influenza virus a) [%]	inhibition [2] [%]	inhibition (Clostridium perfringens) [%]	inhibition (Vibrio cholerae) [%]	Ki [3] [µM]
CC(C)OC1OC(C(=O)O)=CC(O)C1O (stereo unspecified)	6	–	–	–	–	–	–
CC(=O)NC1C(O)C=C(C(=O)O)OC1OC(C)C (stereo unspecified)	–	2700	100	24	24	25	120
CC(=O)N[C@H]1[C@H]([C@H](O)[C@H](O)CO)OC(C(=O)O)=C[C@@H]1O [NEU5AC2EN]	20	1300	–	–	–	–	3.4
O=C(O)C1=CC(O)C(O)C([C@H](O)[C@H](O)CO)O1 (stereo partly specified)	95	–	–	–	–	–	–
